Assays:
Format in all cases: physicochemical
[1] = Evaluation of hardness (EZ-Test-20N hardness meter, needle penetration); conditions: 25° C.
Procedure: A sample such as a solid or an oil-based cosmetic was stored in a temperature-controlled room at 25° C. for at least 1 day, and measurement was carried out using an EZ-Test-20N hardness meter (manufactured by Shimadzu Corporation). The needle diameter was 1.0 mmφ, and the maximum value measured for the stress (N) at a needle penetration depth of 10 mm with a test speed of 10 mm/min was defined as the hardness.
Measurement was carried out using an EZ-Test-20N hardness meter (manufactured by Shimadzu Corporation). The needle diameter was 1.0 mmφ, and the maximum value measured for the stress (N) at a needle penetration depth of 10 mm with a test speed of 10 mm/min was defined as the hardness.

[2] = Exudation (45° C. for 2 hours, then 25° C. for 3 hours, visual); set-up: key: A: When the amount of exudation was small and there were no oil droplets; B: when a slight degree of exudation was observed but the exudation went back in the temperature-controlled room at 25° C.; when the amount of exudation was large and the exudation did not go back even in the temperature-controlled room at 25° C
Procedure: After the sample stored in the 50 mL glass container as described in the above-mentioned sample preparation method was stored in a temperature-controlled room at 45° C. for 2 hours, the amount of exudation on the surface of the sample was visually evaluated. The extent to which the exudation went back when the sample was returned to the temperature-controlled room at 25° C. and stored for 3 hours was also evaluated.

[3] = Miscibility evaluation (visual, 100° C. to 110° C.); conditions: result in words
Procedure: Sample preparation method: Predetermined amounts (mass %) of all components were weighed, dissolved at a temperature of 100° C. to 110° C. as appropriate, stirred until uniform, then cooled to 80° C. to 90° C. while stirring, poured into a preheated 50 mL glass container, transferred to a temperature-controlled room at 45° C., stored for 1 hour while gradually cooling, further transferred to a temperature-controlled room at 25° C., and stored for at least 1 day, thus giving a sample. Evaluation Methods for Various Characteristics (1) Miscibility Evaluation Method
The miscibility at a temperature of 100° C. to 110° C. when preparing the sample was evaluated visually as a degree of difficulty. One that was easily miscible was evaluated as ‘A’, one that was slightly difficulty miscible was evaluated as ‘B’, and one that was difficulty miscible was evaluated as ‘C’.

[4] = UNICLEAR 100VG: 30% with 70% of the listed component
[5] = Versamid 930: 30% with 70% of the listed component
[6] = […] A200V: 30% with 70% of the listed component

Molecule | Hardness [1, 4] | Exudation properties [2, 4] | further results
CCCCCCCCCCCCCCCCOC(=O)C(CC)CCCC (stereo not shown) [CEH, Cetyl ethylhexanoate] | 0.70 N | A | –
CC(C)CCCCCCCCCCCCCCCOC(=O)CC(O)C(=O)OCCCCCCCCCCCCCCCC(C)C (stereo not shown) [DIS, Diisostearyl malate] | 0.80 N | A | Hardness [1, 5]: 0.12 N; Exudation properties [2, 5]: A
CCCCCCCCCCCCC(CO)CCCCCCCCCC (stereo not shown) [Example 24SP, Decyltetradecanol] | – | – | Hardness [1, 6]: 0.05 N; Exudation properties [2, 6]: C
CCCCCCCCCCCCCCC(CO)CCCCCCCCCCCC (stereo not shown) [Example 28SP, Dodecylhexadecanol] | – | – | Hardness [1, 6]: 0.09 N; Exudation properties [2, 6]: C
CC(C)CCCCCCCCCCCCCCC(=O)OC(C)C [IPIS, Isopropyl isostearate] | 0.60 N | A | –
CC(C)CCCCCCCCCCCCCCCOC(=O)CCCCCCCCCCCCCCC(C)C [ISIS, Isostearyl isostearate] | 0.05 N | B | –
CCCCC(CC)C(=O)OCC(C)(C)COC(=O)C(CC)CCCC (stereo not shown) [NDO, Neopentylglycol diethylhexanoate] | 0.90 N | A | –
CC(C)CCCCCCCCCCCCCCC(=O)OCC(COC(=O)CCCCCCCCCCCCCCC(C)C)(COC(=O)CCCCCCCCCCCCCCC(C)C)COC(=O)CCCCCCCCCCCCCCC(C)C [PTI, Pentaerythrityl tetraisostearate] | 0.01 N | B | –
CCCCC(CC)C(=O)OCC(COC(=O)C(CC)CCCC)(COC(=O)C(CC)CCCC)COC(=O)C(CC)CCCC (stereo not shown) [PTO, Pentaerythrityl tetraethylhexanoate] | 0.04 N | B | –
Nc1cc(S(=O)(=O)[O-])cc2cc(S(=O)(=O)[O-])c(N=Nc3ccccc3)c(O)c12.[Na+].[Na+] [Red. No. 227] | – | – | miscibility with the base [3]: particularly excellent
CC(C)CCCC(C)CCCC(C)CCCCC(C)CCCC(C)CCCC(C)C (stereo not shown) [SQ, Squalane] | 0.02 N | A | –
CC(C)CCCCCCCCCCCCCCC(=O)OCC(COC(=O)CCCCCCCCCCCCCCC(C)C)OC(=O)CCCCCCCCCCCCCCC(C)C [TISG, Triisostearin] | 0.03 N | B | –
CCCCC(CC)C(=O)OCC(COC(=O)C(CC)CCCC)OC(=O)C(CC)CCCC (stereo not shown) [TOG, Triethylhexanoin] | 0.06 N | B | –
CCC(COC(=O)CCCCCCCCCCCCCCC(C)C)(COC(=O)CCCCCCCCCCCCCCC(C)C)COC(=O)CCCCCCCCCCCCCCC(C)C [TTI, Trimethylolpropane triisostearate] | 0.01 N | B | Hardness [1, 6]: 0.02 N; Exudation properties [2, 6]: B
Trimethylolpropane triethylhexanoate [TTO] | – | – | Hardness [1, 6]: 0.03 N; Exudation properties [2, 6]: B

Now from value to molecule, other results behind:

Hardness [1, 4] | Exudation properties [2, 4] | Molecule | further results
0.50 N | A | CC(C)CCCCCCCCCCOC(=O)CCCCCC(C)C [KAK139, Isotridecyl isononanoate] | –
0.33 N | A | Polyglyceryl-2 diisostearate [PGIS22] | Hardness [1, 5]: 3.00 N; Exudation properties [2, 5]: A
0.35 N | A | Polyglyceryl-2 isostearate [PGIS21] | –
0.50 N | A | Polyglyceryl-2 triisostearate [PGIS23] | –

Reference: patent US7993662B2, “Transparent solid oil cosmetics” (Kokyu Alcohol Kogyo Co., Ltd., priority 2005, dated 2011)
